Experimental data from patent publication US7273723B2, “Antibiotic-based gene regulation system” (priority 2001, dated 2007).

How the values were obtained:
[1] = system: ET1 (MphR(A)-VP16) / PETR promoters; test: SEAP reporter assay, CHO lines stably expressing ET1 (CHO-ET11, CHO-ET12) transiently transfected with PETR-SEAP plasmids; assay type: cell-based; details: for SEAP production [%]: CHO-ET11 transiently transfected with pWW38, 48 h, antibiotic 2 μg/ml, no macrolide = 100
Protocol: (§1) Chinese hamster ovary cells (CHO-K1, ATCC: CCL 61), and HeLa cells (ATCC: CRL-7923) as well as stable cell lines derived thereof were cultured as described before (Fussenegger et al., 1998, Nat. Biotechnol. 16,468-472) in the presence of appropriate antibiotics: G418 400 μg/ml; zeocin 100 μg/ml. Optimized CaPO4 protocols were used for high efficiency transient transfection of all cell lines (Fussenegger et al., 1998. Nat. Biotechnol. 16: 468-472). Transiently transfected cells were routinely analyzed after 48 h for CFP or SEAP expression using fluorescence microscopy and p-nitrophenolphosphate-based light absorbance timecourse, respectively, as described before (Fussenegger et al., 1998, Nat. Biotechnol. 16, 468-472; Berger et al., 1988, Gene 66, 1-10 b). For construction of stable CHO-ET1 and CHO-Triplet42 cell lines, CHO-Ki and CHO-TWIN1108 (Disclosed in PCT application no. 00/65080) were cotransfected with pWW35 and pZeoSV2 (invitrogen). CHO-ET11-SEAP was constructed by cotransfection of pWW38 and pSV2neo (Clontech) into CHO-ET11. The mixed populations were cloned using FACS-mediated single-cell-sorting (FACStar^Plus; Beckton Dickinson). For assessment of dose-response characteristics of PETR3-regulated gene expression, CHO-ET11-SEAP were cultured at cell densities of 50,000/ml for 48 h at various EM concentrations.
(§2) Other antibiotics were eluted from antibiotic test discs (Mast Diagnostica GmbH, Reinfeld, Germany, or bioMérieux, Geneva Switzerland) in cell culture medium at 37° C. for 12 h to reach a final concentration of 30 μg/ml. All macrolide antibiotics were used at a 2 μg/ml concentration unless indicated otherwise.
Two representative clones, CHO-ET11 and CHO-ET12, were chosen at random among ET1-expressing CHO cell clones stably transfected with a constitutive ET1 expression construct (pWW35).
Access to alternative effective antibiotics would expand the spectrum of regulating agents available for future use in human cell and gene therapy. Accordingly, several commercially available antibiotic sources were tested for their potential to regulate the ET1/PETR3 system as shown below in Table 3.
The effect of the different spacer length in promoters PETR2 and PETR7-PETR11 were examined by transfecting the corresponding plasmids (pWW37, pBP10-pBP14) into a CHO cell line stably transfected with the transactivator ET1 (MphR(A)-VP 16, see example 1).

[2] = saliva, sputum, lung tissue, epithelial lining fluid, alveolar macrophages, neutrophils, tonsils, nasal mucosa, middle ear fluid; cited from earlier work
[3] = system: PIT / pristinamycin-responsive promoter PPIR; test: SEAP assay in CHO-Triplet42 transfected with PPIR-SEAP (pMF172); assay type: cell-based; details: for SEAP activity [U/L]: CHO-Triplet42 + pMF172 (PPIR), antibiotic 2 μg/ml, 48 h
Protocol: as §1, §2
(§3) The regulation performance of the EM-based regulation system was compared directly with the widely used TET- and PIP responsive expression concepts. To this end, we have constructed a stable CHO-K1-derived cell line expressing ET1, PIT and tTA (CHO-Triplet42). […] CHO-Triplet42 was transfected with either isogenic (i) PETR3-(pWW38), (ii) a PPIR-(pristinamycin-responsive promoter, pMF172, Fussenegger et al., 2000. supra.), or (iii) a PhCMV*-1-(tetracycline-responsive promoter, pMF111, Fussenegger et al., 2000. supra) driven SEAP expression vector to assess the individual regulation performance of the three antibiotic-responsive gene regulation systems in CHO cells (Table 5).
(§4) To analyze the relative regulatory characteristics, we evaluated induction factors (IF; ratio of maximal expression level to antibiotic-repressed expression level).
(§5) These repressive effects are still in a range which is tolerable for use in potential medical applications.

[4] = system: ET1 / erythromycin-responsive promoter PETR3; test: SEAP assay in CHO-Triplet42 transfected with PETR3-SEAP (pWW38); assay type: cell-based; details: antibiotic 2 μg/ml; for SEAP activity [U/L]: CHO-Triplet42 + PWW38 (PETR3), 48 h
Protocol: as §1, §2, §3, §4, §5

[5] = molecular target: T1, tTA / tetracycline-responsive promoter PhCMV*-1 (Escherichia coli, UniProt P04483); test: SEAP assay in CHO-Triplet42 transfected with PhCMV*-1-SEAP (pMF111); assay type: cell-based; details: antibiotic 2 μg/ml
T1 construct: expressed in transfected cells; host or cells: CHO-Triplet42 (from CHO-TWIN1108)
Protocol: as §1, §2

Molecule: CC[C@H]1OC(=O)[C@H](C)[C@@H](O[C@H]2C[C@@](C)(OC)[C@@H](O)[C@H](C)O2)[C@H](C)[C@@H](O[C@@H]2O[C@H](C)C[C@H](N(C)C)[C@H]2O)[C@](C)(O)C[C@@H](C)CN(C)[C@H](C)[C@@H](O)[C@]1(C)O [Azithromycin]
- SEAP production [%] [1]: 57.6 ± 4.4%

Molecule: CO/N=C(\C(=O)N[C@@H]1C(=O)N2C(C(=O)O)=C(CSc3nc(=O)c(=O)[nH]n3C)CS[C@H]12)c1csc(N)n1 [Ceftriaxone]
- SEAP production [%] [1]: 28.8 ± 1.8%

Molecule: CC[C@H]1OC(=O)[C@H](C)[C@@H](O[C@H]2C[C@@](C)(OC)[C@@H](O)[C@H](C)O2)[C@H](C)[C@@H](O[C@@H]2O[C@H](C)C[C@H](N(C)C)[C@H]2O)[C@](C)(OC)C[C@@H](C)C(=O)[C@H](C)[C@@H](O)[C@]1(C)O [Clarithromycin]
- Induction factor (ratio of SEAP activity without antibiotic to SEAP activity with antibiotic) ([1]; CHO-ET11 + pWW38, 2 μg/ml): 23
- SEAP production [%] [1]: 4.3 ± 0.3%
- diffusion into tissues and fluids [2]: extensive diffusion

Molecule: CC[C@H]1OC(=O)[C@H](C)[C@@H](O[C@H]2C[C@@](C)(OC)[C@@H](O)[C@H](C)O2)[C@H](C)[C@@H](O[C@@H]2O[C@H](C)C[C@H](N(C)C)[C@H]2O)[C@](C)(O)C[C@@H](C)/C(=N\OCOCCOC)[C@H](C)[C@@H](O)[C@]1(C)O [Roxithromycin]
- SEAP production [%] [1]: 18.1 ± 0.9%

Molecule: CN(C)[C@@H]1C(O)=C(C(N)=O)C(=O)[C@@]2(O)C(O)=C3C(=O)c4c(O)cccc4[C@@](C)(O)[C@H]3C[C@@H]12 [Tet, tetracycline]
- SEAP activity [U/L] [3]: 4.6 ± 0.4 U/L
- SEAP activity [U/L] [4]: 55.0 ± 8.3 U/L

Molecule: CC[C@H]1OC(=O)C[C@@H](O)[C@H](C)[C@@H](O[C@@H]2O[C@H](C)[C@@H](O[C@H]3C[C@@](C)(O)[C@@H](O)[C@H](C)O3)[C@H](N(C)C)[C@H]2O)[C@@H](CC=O)C[C@@H](C)C(=O)/C=C/C(C)=C/[C@@H]1CO[C@@H]1O[C@H](C)[C@@H](O)[C@@H](OC)[C@H]1OC [Tylosin]
- SEAP production [%] [1]: 30.9 ± 3.2%

Molecule: pristinamycin I [PI]
- SEAP activity [U/L] [3]: 2.2 ± 0.1 U/L
- Induction factor ([3]; Pip-system in CHO-Triplet42): three-fold
- SEAP activity [U/L] ([5]; CHO-Triplet42 + pMF111 (PhCMV*-1), 48 h): 87.9 ± 7.0 U/L
- Antibiotic crossregulation of PhCMV*-1 ([5]; CHO-Triplet42 + pMF111): no significant interference
- SEAP activity [U/L] [4]: 71.9 ± 7.0 U/L
- Antibiotic crossregulation of PETR3 ([4]; CHO-Triplet42 + pWW38): no significant interference
